Data: patent publication US20220002427A1, “BISPECIFIC ANTIBODY AGAINST BCMA AND CD3 AND AN IMMUNOLOGICAL DRUG FOR COMBINED USE IN TREATING MULTIPLE MYELOMA” (ENGMAB SARL, priority 2016, published 2022)

Tested on: H929 MM cells
Assay: H929 MM cell lysis with TCB alone or combined with lenalidomide, anti-PD-1 or daratumumab (co-culture with human leukocytes, flow cytometry)
Format: cell-based
Conditions: H929 cells + leucocytes of Donor 1, 48 h
From the text: FIGS. 21A-21B. Redirected T-cell lysis of H929 MM cells induced by anti-BCMA/anti-CD3 T-cell bispecific antibodies in combination with thalidomide derivatives (lenalidomide) or immunotherapeutic derivatives (anti-PD1 and anti-CD38 antibodies) as measured by flow cytometry. H929 MM cells were co-cultured with human leukocytes (n=1 or 5) and challenged to suboptimal concentrations of anti-BCMA/anti-CD3 T-cell bispecific antibody 83A10-TCcv (10 pM) (FIG. 21A) or 42-TCBcv (10 pM) (FIG. 21B) alone, in combination with suboptimal concentrations of lenalidomide (1 μM), anti-PD-1 (10 μg/ml) and anti-CD38 daratumumab (10 μg/ml).
Anti-BCMA/anti-CD3 T-cell bispecific antibody (namely 83A10-TCBcv or 42-TCBcv) was combined with three drugs representing different types of immunotherapy: lenalidomide, anti-PD-1 antibody and anti-CD38 antibody daratumumab. H929 MM cells were co-cultured with human leukocytes from healthy donors (n=1 or 5) in RPMI-1640 medium supplemented with 10% FBS, 0.5% gentamincin and 1% L-Glutamine at 37° C. in a humidified 5% CO2 incubator and challenged to suboptimal concentrations of 83A10-TCBcv (10 pM) (n=5) or 42-TCBcv (10 pM) (n=1) alone, or in combination with lenalidomide (1 μM), anti-PD-1 antibody (10 μg/ml) and anti-CD38 antibody daratumumab (10 μg/ml). […] FIG. 21B and Table 28 show the percentage of MM cell lysis when H929 cells and leucocytes from one healthy donor were exposed to 42-TCBcv (10 pM) combined with lenalidomide (1 μM), anti-PD-1 antibody (10 μg/ml) and anti-CD38 antibody daratumumab (10 μg/ml) for 48 h of culture.

[1] = with TCB (combination with 42-TCBcv)

| Compound | MM cell lysis [1] | MM cell lysis (without TCB) |
| --- | --- | --- |
| Daratumumab: anti-CD38 antibody (US20150246123) | 42.29% | 33.06% |
| Nc1cccc2c1CN(C1CCC(=O)NC1=O)C2=O (stereo not shown) [lenalidomide] | 13.27% | −1.78% |
